What is called IC50 is the midpoint of a concentration-inhibition curve.

The test system of this assay is T1, tubulin (alpha- and beta-tubulin).
T1 construct: with alpha-/beta-tubulin heterodimer
Kind of assay: cell-free fluorescence-based tubulin polymerization assay (Cytoskeleton BK011P). It counts as biochemical, Bos taurus.

Regarding `COc1cccc(C=C2SC(=Nc3ccc(O)cc3)NC2=O)c1` [MHPT, 2-((4-hydroxyphenyl)imino)-5-(3-methoxybenzylidene)thiazolidin-4-one], 6.28 µM corresponded to half-maximal inhibition (IC50).

Source of the values: paper PMC4374867, “The Novel Tubulin Polymerization Inhibitor MHPT Exhibits Selective Anti-Tumor Activity against Rhabdomyosarcoma In Vitro and In Vivo” (PLoS ONE, 2015).
